Measured values published in ChEMBL document CHEMBL1155876 (J Med Chem, 2008).

Key:
[1] = target: Tyrosine-protein kinase Blk (Homo sapiens) (UniProt P51451); assay: Inhibition of human Blk kinase assessed as residual enzyme activity at 0.1 uM
Homo sapiens = species on record: Homo sapiens; assay: Inhibition of human CDK5/p25 kinase assessed as residual enzyme activity at 0.1 uM
[2] = target: Casein kinase I isoform delta (Homo sapiens) (UniProt P48730); assay: Inhibition of human CK1delta kinase assessed as residual enzyme activity at 0.1 uM
Chain of Casein kinase I isoform delta (Homo sapiens) (P48730 whole entry, looked up, canonical isoform): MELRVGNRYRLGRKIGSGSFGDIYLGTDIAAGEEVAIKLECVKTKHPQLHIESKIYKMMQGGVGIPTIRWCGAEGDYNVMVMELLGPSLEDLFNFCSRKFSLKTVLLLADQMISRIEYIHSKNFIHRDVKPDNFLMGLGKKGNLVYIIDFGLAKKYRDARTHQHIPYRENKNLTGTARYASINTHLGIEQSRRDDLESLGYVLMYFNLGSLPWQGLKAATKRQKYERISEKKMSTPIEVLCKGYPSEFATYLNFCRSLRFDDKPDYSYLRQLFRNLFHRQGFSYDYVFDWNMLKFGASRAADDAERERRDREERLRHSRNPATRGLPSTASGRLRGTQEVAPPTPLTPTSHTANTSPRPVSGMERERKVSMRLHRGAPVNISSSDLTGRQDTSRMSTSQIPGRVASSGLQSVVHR

[3] = target: Mast/stem cell growth factor receptor Kit (Homo sapiens) (UniProt P10721); assay: Inhibition of human cKit assessed as residual enzyme activity at 0.1 uM
Chain of Mast/stem cell growth factor receptor Kit (Homo sapiens) (P10721 whole entry): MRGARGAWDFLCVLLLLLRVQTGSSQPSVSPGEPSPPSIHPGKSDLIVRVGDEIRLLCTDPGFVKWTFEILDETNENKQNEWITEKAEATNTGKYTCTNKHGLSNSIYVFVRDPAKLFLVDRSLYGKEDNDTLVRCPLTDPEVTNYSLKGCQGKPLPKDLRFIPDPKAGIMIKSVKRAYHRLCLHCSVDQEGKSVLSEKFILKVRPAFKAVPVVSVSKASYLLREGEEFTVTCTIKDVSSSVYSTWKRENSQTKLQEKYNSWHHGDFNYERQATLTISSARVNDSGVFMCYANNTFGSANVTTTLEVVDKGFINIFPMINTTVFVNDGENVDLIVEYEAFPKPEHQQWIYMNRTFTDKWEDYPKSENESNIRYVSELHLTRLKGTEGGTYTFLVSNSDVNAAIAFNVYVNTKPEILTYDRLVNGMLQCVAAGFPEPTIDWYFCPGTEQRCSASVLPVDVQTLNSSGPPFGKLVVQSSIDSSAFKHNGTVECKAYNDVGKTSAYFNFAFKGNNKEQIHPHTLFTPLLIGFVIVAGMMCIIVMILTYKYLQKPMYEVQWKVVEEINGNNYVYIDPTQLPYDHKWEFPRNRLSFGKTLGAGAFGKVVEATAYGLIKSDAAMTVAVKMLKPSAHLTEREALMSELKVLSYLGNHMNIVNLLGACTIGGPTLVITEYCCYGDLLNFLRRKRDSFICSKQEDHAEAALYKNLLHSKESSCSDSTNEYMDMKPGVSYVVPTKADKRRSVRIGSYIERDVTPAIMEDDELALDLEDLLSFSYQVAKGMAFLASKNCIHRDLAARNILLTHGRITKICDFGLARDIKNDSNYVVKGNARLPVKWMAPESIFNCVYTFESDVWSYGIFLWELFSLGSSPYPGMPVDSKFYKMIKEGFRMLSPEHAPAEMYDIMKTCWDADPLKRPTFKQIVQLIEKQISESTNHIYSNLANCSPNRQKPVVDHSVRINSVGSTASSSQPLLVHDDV

[4] = target: Death-associated protein kinase 1 (Homo sapiens) (UniProt P53355); assay: Inhibition of human DAPK1 kinase assessed as residual enzyme activity at 0.1 uM
Chain of Death-associated protein kinase 1 (Homo sapiens) (P53355 whole entry, looked up): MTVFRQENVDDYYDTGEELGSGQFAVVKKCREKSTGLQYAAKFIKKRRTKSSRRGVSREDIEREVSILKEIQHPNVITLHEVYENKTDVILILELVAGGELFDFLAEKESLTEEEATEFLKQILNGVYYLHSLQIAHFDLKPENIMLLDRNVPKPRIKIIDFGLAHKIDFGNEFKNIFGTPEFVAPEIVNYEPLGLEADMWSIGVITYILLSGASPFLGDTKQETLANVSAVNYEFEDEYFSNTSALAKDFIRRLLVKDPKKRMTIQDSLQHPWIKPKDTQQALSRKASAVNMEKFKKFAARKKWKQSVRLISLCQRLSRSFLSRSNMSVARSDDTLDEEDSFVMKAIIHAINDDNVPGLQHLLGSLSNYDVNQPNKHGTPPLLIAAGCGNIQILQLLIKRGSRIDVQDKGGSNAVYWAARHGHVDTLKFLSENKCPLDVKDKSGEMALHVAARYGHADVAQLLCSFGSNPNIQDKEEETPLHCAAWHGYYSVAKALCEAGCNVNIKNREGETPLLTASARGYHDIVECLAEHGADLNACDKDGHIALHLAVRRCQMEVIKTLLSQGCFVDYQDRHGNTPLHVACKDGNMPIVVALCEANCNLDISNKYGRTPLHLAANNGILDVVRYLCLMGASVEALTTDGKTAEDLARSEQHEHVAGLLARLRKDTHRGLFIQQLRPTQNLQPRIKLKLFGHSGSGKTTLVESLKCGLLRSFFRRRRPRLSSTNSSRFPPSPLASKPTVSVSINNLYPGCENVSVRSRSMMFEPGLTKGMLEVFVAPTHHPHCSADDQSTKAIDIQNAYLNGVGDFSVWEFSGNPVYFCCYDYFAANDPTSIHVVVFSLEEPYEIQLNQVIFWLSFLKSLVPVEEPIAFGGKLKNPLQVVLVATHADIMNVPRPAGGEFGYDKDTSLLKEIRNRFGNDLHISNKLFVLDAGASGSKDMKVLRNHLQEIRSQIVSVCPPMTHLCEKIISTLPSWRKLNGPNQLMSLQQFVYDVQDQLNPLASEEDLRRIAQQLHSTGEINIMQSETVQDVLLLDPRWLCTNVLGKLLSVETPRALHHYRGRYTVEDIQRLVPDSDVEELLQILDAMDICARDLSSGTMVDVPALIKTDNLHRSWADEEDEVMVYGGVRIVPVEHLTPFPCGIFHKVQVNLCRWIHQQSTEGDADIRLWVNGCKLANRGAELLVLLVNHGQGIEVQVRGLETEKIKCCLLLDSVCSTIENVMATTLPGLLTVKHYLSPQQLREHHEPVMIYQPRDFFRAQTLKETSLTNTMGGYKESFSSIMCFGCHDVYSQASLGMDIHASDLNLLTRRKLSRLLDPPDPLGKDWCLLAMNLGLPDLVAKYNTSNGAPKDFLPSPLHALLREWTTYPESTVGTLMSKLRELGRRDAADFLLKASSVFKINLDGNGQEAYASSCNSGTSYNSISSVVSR

[5] = target: Serine/threonine-protein kinase MRCK alpha (Homo sapiens) (UniProt Q5VT25); assay: Inhibition of human MRCKalpha kinase assessed as residual enzyme activity at 0.1 uM
[6] = target: Protein kinase C theta type (Homo sapiens) (UniProt Q04759); assay: Inhibition of human PKCtheta kinase assessed as residual enzyme activity at 0.1 uM
Chain of Protein kinase C theta type (Homo sapiens) (Q04759 whole entry, looked up): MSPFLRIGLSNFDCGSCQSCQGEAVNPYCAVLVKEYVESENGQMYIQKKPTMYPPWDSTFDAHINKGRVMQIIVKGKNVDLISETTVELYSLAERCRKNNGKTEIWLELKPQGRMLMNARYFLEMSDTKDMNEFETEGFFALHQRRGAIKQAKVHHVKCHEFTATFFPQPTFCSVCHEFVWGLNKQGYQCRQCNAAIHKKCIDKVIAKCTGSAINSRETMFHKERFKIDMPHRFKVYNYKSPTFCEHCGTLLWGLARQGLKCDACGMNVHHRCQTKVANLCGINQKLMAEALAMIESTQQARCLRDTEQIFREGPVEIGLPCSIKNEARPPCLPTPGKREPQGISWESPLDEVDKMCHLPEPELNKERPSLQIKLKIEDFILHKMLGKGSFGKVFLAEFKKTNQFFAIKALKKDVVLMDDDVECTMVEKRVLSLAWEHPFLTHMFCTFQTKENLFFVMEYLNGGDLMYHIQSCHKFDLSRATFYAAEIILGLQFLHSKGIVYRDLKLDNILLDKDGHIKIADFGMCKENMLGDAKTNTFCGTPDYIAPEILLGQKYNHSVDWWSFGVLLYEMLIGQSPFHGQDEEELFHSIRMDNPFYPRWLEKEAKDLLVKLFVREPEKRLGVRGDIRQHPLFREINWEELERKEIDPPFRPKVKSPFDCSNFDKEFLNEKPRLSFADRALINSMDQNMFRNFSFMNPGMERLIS

Chain of Tyrosine-protein kinase Blk (Homo sapiens) (P51451 2-505 limits assumed): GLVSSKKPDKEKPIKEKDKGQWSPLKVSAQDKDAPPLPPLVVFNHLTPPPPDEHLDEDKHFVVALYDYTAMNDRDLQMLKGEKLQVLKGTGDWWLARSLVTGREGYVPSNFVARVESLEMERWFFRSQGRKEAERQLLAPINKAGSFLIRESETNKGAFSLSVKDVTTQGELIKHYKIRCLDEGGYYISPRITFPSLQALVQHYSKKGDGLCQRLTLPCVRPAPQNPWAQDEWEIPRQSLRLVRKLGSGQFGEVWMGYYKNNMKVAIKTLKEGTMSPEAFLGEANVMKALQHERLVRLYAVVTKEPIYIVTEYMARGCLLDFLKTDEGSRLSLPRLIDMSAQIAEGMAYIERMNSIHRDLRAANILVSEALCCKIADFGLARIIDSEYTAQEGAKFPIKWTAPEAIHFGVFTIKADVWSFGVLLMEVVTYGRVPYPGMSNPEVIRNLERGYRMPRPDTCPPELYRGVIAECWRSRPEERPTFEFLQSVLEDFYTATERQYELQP

`CCN1C(=O)C(C)(C)c2cc3[nH]c4c(c3cc21)CCCc1c(C)n[nH]c1-4` gave an Activity [1] of 62%, an Activity (Homo sapiens) of 89% and an Activity [2] of 96%. For the same compound, the Activity [3] was 77%, the Activity [4] was 107% and the Activity [5] was 98%. It also gave an Activity [6] of 95%.
